For one test, the target named is T1, Human recombinant MMP-13 (Homo sapiens, UniProt P45452).
T1 construct: made in house; host or cells: baculovirus expression (insect cells)
As to the kind of experiment: In vitro MMP inhibition assay, MMP-13 (fluorogenic peptide substrate cleavage, Ki). The format is biochemical. Particulars: human MMP-13, full length (FL); read-out: hMMP Ki 13/FL. As for the experimental part: (§1) Matrix Metalloproteinase inhibitor compounds were analyzed in in vitro MMP Inhibition assays to determine their ability to inhibit the MMP cleavage of peptide substrates. Inhibition constants (Ki) were calculated from the assayed compound-MMP interactions.
(§2) Human recombinant MMP-1, MMP-2, MMP-3, MMP-7, MMP-9, MMP-12, MMP-13, MMP-14 and MMP-15 were used in these assays. The enzymes are prepared following known laboratory procedures. Protocols for the preparation and use of these enzymes are available in the scientific literature. See, e.g., Enzyme Nomenclature (Academic Press, San Diego, Calif., 1992) and the citations therein. See also Frije et al., J. Biol. Chem., 26(24), 16766-73 (1994).
The MMP-13 may be obtained as a proenzyme from a full-length cDNA clone using baculovirus expression, as described by V. A. Luckow, “Insect Cell Expression Technology,” Protein Engineering: Principles and Practice, pp. 183-218 (edited by J. L. Cleland et al., Wiley-Liss, Inc., 1996). The expressed proenzyme was first purified over a heparin agarose column, and then over a chelating zinc chloride column. Further details on baculovirus expression systems may be found in, for example, Luckow et al., J. Virol., 67, 4566-79 (1993). See also O'Reilly et al, Baculovirus Expression Vectors: A Laboratory Manual (W. H. Freeman and Co., New York, N.Y., 1992). See also King et al., The Baculovirus Expression System: A Laboratory Guide (Chapman & Hall, London, England, 1992).
All full length MMPs were activated using 4-aminophenylmercuric acetate (“APMA”, Sigma Chemical, St. Louis, Mo.) or trypsin. MMP-9 also was activated using human recombinant MMP-3 following standard cloning and purification techniques.
The fluorogenic, methoxycoumarin-containing polypeptide substrate MCA-ArgProLeuGlyLeuDpaAlaArgGluArgNH2 was used as the MMP substrate in the MMP inhibition assays for human recombinant MMP-1, MMP-2, MMP-7, MMP-9, MMP-12, MMP-13, MMP-14 and MMP-15. Here, “MCA” is 7-methoxycoumarin-4-yl acetyl and “Dpa” is 3-(2,4-dinitrophenyl)-L-2,3-di-aminopropionyl group. In the absence of MMP inhibitory activity, the substrate is cleaved at the Gly-Leu peptide bond. The cleavage separates the highly fluorogenic peptide from the 2,4-dinitrophenyl quencher, resulting in an increase of fluorescent intensity.
For the human MMP-1, MMP-2, MMP-7, MMP-9, MMP-12, MMP-13, MMP-14 and MMP-15 assays, dilutions of the inhibitors (or salts thereof) were prepared in 100% dimethyl sulfoxide (DMSO). The stock solutions were diluted in Buffer A (100 mM Tris-HCl, 100 mM NaCl, 10 mM CaCl2, 0.005% polyoxyethylene 23 lauryl ether, pH 7.5) to obtain solutions with different compound concentrations, i.e., assay solutions with different concentrations of the assayed MMP inhibitory compound in 1% DMSO. The experiment controls contained the same amount of Buffer A/DMSO as the assayed sample, but contained no inhibitor.
(§3) To determine Ki, the inhibitor samples are incubated at room temperature for 1 hr in the presence of enzyme and then 4 μM of appropriate MMP substrate was added, and samples were analyzed on a Tecan SpectraFlour Plus plate reader. The excitation wavelength is 330 nm, and the emission (fluorescence) wavelength is 420 nm. In the absence of MMP inhibitory activity, the substrate is cleaved at the Gly-Leu bond resulting in an increase of relative fluorescence. Inhibition is observed as a reduced rate of increase in relative fluorescence.
The inhibitors are analyzed using a single low enzyme concentration with a single substrate concentration fixed at or below the Km. This protocol is a modification of method by Knight et al., FEBS Lett., 296(3), 263-266 (1992). Apparent inhibitory constants are determined by non-linear regression of reaction velocity as a function of inhibitor and enzyme concentration using Morrison's equation, as described by Kuzmic, Anal. Biochem. 286, 45-50 (2000). […]

The target of test [1] is T2, catalytic domain of human recombinant MMP-3 (Homo sapiens, UniProt P08254).
T2 construct: made in house
T2 sequence (P08254 100-272 limits assumed): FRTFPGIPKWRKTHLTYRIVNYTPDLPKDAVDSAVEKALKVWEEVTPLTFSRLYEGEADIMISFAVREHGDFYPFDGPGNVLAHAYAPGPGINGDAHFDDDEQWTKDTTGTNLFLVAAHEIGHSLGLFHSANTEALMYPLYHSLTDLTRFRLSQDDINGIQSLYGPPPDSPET
As to the kind of experiment: In vitro MMP inhibition assay, MMP-3 catalytic domain (fluorogenic peptide substrate cleavage, Ki). The format is biochemical. The conditions noted are these: human MMP-3, catalytic domain (CD); read-out: hMMP Ki 03/CD. As for the experimental part:
as §1, §2
The catalytic domain MMP-3 cDNA may be used to express the catalytic domain enzyme in E. coli inclusion bodies. Then the enzyme is solubilized in urea, purified on a preparative […] reverse phase HPLC column, and refolded in the presence of zinc acetate and purified for use.
The fluorogenic, methoxycoumarin-containing polypeptide substrate Mca-Arg-Pro-Lys-Pro-Val-Glu-Nva-Trp-Arg-Lys(Dnp)-NH2 (Bachem catalog number M-2110) was used as the MMP substrate in the MMP inhibition assays for catalytic domain of human recombinant MMP-3 (which refers to the catalytic domain of stromelysin). Here, “MCA” is 7-methoxycoumarin-4-yl acetyl and “Dpa” is 3-(2,4-dinitrophenyl)-L-2,3-di-aminopropionyl group. In the absence of MMP inhibitory activity, the substrate is cleaved at the Gly-Leu peptide bond. The cleavage separates the highly fluorogenic peptide from the 2,4-dinitrophenyl quencher, resulting in an increase of fluorescent intensity.
For the human MMP-3 assay, dilutions of the inhibitors (or salts thereof) were prepared in 100% DMSO. The stock solutions were diluted in Buffer B (50 mM N-morpholinoethane sulfonate (“MES”), 100 mM NaCl, 10 mM CaCl2, 0.005% polyoxyethylene 23 lauryl ether, pH 6.0)) to obtain solutions with different compound concentrations, i.e., assay solutions with different concentrations of the assayed MMP inhibitory compound in 1% DMSO. The experiment controls contained the same amount of Buffer B/DMSO as the assayed sample, but contained no inhibitor.
as §3
The inhibitors are analyzed using a single low enzyme concentration with a single substrate concentration fixed at or below the Km. This protocol is a modification of method by Knight et al., FEBS Lett., 296(3), 263-266 (1992). Apparent inhibitory constants are determined by non-linear regression of reaction velocity as a function of inhibitor and enzyme concentration using Morrison's equation, as described by Kuzmic, Anal. Biochem. 286, 45-50 (2000). Modifications were made in the non-linear regression method to allow a common control reaction rate and effective enzyme concentration to be shared between all dose-response relationships on a given assay plate. Since the substrate concentration was chosen to be at or below the Km, the apparent Ki's from this analysis were reported as Ki's without correction for the influence of substrate.

Molecules are shown by their SMILES.

With `COc1cccc(CNC(=O)c2nc3scc(COC[C@H]4CC[C@H](NS(C)(=O)=O)CC4)c3c(=O)[nH]2)c1` [Example 16, N-(3-Methoxybenzyl)-5-[({trans-4-[(methylsulfonyl)amino]cyclohexyl}methoxy)methyl]-4-oxo-3,4-dihydrothieno[2,3-d]pyrimidine-2-carboxamide], the Ki was determined as 0.41 nM on Human recombinant MMP-13 and 533 nM in test [1].
For the compound `COc1cccc(CNC(=O)c2nc3scc(COC[C@H]4CC[C@H](NC(C)=O)CC4)c3c(=O)[nH]2)c1` [Example 17, 5-({[trans-4-(Acetylamino)cyclohexyl]methoxy}methyl)-N-(3-methoxybenzyl)-4-oxo-3,4-dihydrothieno[2,3-d]pyrimidine-2-carboxamide], the Ki at Human recombinant MMP-13 worked out at 1.62 nM; in test [1], 656 nM.
The corresponding values for `COc1cccc(CNC(=O)c2nc3scc(COC[C@H]4CC[C@H](NC(=O)CO)CC4)c3c(=O)[nH]2)c1` [Example 21, N-(3-Methoxybenzyl)-5-((((trans-1,4)-4-(2-hydroxyacetamido)cyclohexyl)methoxy)methyl)-4-oxo-3,4-dihydrothieno[2,3-d]pyrimidine-2-carboxamide] are 1.25 nM and 672 nM.
In the case of `COc1cc(CNC(=O)c2nc3scc(COC[C@H]4CC[C@H](NC(=O)CO)CC4)c3c(=O)[nH]2)ccc1F` [Example 23, N-(4-Fluoro-3-methoxybenzyl)-5-((((trans-1,4)-4-(2-hydroxyacetamido)cyclohexyl)methoxy)methyl)-4-oxo-3,4-dihydrothieno[2,3-d]pyrimidine-2-carboxamide], the Ki at Human recombinant MMP-13 amounted to 0.582 nM; in test [1] it was 453 nM.
As for `COc1cccc(CNC(=O)c2nc3scc(COC[C@H]4CC[C@H](CNS(C)(=O)=O)CC4)c3c(=O)[nH]2)c1` [Example 25, N-(3-methoxybenzyl)-5-[({trans-4-[(methylsulfonyl)aminomethyl]cyclohexyl}methoxy)methyl]-4-oxo-3,4-dihydrothieno[2,3-d]pyrimidine-2-carboxamide], the Ki at Human recombinant MMP-13 was 0.566 nM; in test [1], 512 nM.
Consider `COc1cccc(CNC(=O)c2nc3scc(COCCC4CCN(S(C)(=O)=O)CC4)c3c(=O)[nH]2)c1` [Example 27, N-(3-methoxybenzyl)-5-({2-[1-(methylsulfonyl)piperidin-4-yl]ethoxy}methyl)-4-oxo-3,4-dihydrothieno[2,3-d]pyrimidine-2-carboxamide], for which the Ki was determined as 1.78 nM on Human recombinant MMP-13 and 779 nM in test [1].
Regarding `COc1cccc(CNC(=O)c2nc3scc(COCCC4CCN(C(C)=O)CC4)c3c(=O)[nH]2)c1` [Example 28, 5-([2-(1-Acetylpiperidin-4-yl)ethoxy]methyl)-N-(3-methoxybenzyl)-4-oxo-3,4-dihydrothieno[2,3-d]pyrimidine-2-carboxamide], the values for the Ki (on Human recombinant MMP-13; in test [1]) were 3.13 nM and 787 nM, respectively.
As for `COc1cccc(CNC(=O)c2nc3ccc(F)c(OC[C@H]4CC[C@H](CO)CC4)c3c(=O)[nH]2)c1` [Example 29, 6-fluoro-5-{[trans-4-(hydroxymethyl)cyclohexyl]methoxy}-N-(3-methoxybenzyl)-4-oxo-3,4-dihydroquinazoline-2-carboxamide], the results for the Ki (at Human recombinant MMP-13; in test [1]) were 0.374 nM and 1600 nM, respectively.
Turning to `COc1cccc(CNC(=O)c2nc3ccc(F)c(OCCC4CCNCC4)c3c(=O)[nH]2)c1` [Example 30, 6-fluoro-N-(3-methoxybenzyl)-4-oxo-5-(2-piperidin-4-ylethoxy)-3,4-dihydroquinazoline-2-carboxamide], the figures for the Ki (at Human recombinant MMP-13; in test [1]) were 1.91 nM and 9420 nM, respectively.
As for `COc1cccc(CNC(=O)c2nc3ccc(F)c(OCCC4CCN(S(C)(=O)=O)CC4)c3c(=O)[nH]2)c1` [Example 31, 6-fluoro-N-(3-methoxybenzyl)-5-{2-[1-(methylsulfonyl)piperidin-4-yl]ethoxy}-4-oxo-3,4-dihydroquinazoline-2-carboxamide], the Ki was determined as 0.085 nM on Human recombinant MMP-13 and 1280 nM in test [1].
`COc1cccc(CNC(=O)c2nc3ccc(F)c(OCCC4CCN(C(C)=O)CC4)c3c(=O)[nH]2)c1` [Example 32, 5-[2-(1-acetylpiperidin-4-yl)ethoxy]-6-fluoro-N-(3-methoxybenzyl)-4-oxo-3,4-dihydroquinazoline-2-carboxamide]: the results for the Ki (at Human recombinant MMP-13; in test [1]) were 0.184 nM and 1950 nM, respectively.
Consider `COc1cccc(CNC(=O)c2nc3ccc(F)c(OCCC4CCN(CCO)CC4)c3c(=O)[nH]2)c1` [Example 35, 6-fluoro-5-{2-[1-(2-hydroxyethyl)piperidin-4-yl]ethoxy}-N-(3-methoxybenzyl)-4-oxo-3,4-dihydroquinazoline-2-carboxamide], for which the Ki at Human recombinant MMP-13 came to 4.15 nM; in test [1], 5200 nM.

Source of the values: patent US20110009435A1, “HETERO BICYCLIC CARBOXAMIDE DERIVATIVES AND THEIR PHARMACEUTICAL USE AND COMPOSITIONS” (Pfizer, Inc., priority 2007, published 2011).
